Assay results taken from ChEMBL document CHEMBL1201862, “PubChem BioAssay data set” (2004).
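Briefly, cells in 96-well plates were exposed to five compound concentrations for 48 h, and endpoints were estimated by linear interpolation. Abbreviation: GI50, concentration required for 50% inhibition of growth.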 Activity calls are given as the source filed them. Rule as the data show it: active = GI50 up to about 1.1 µM and inactive = higher. Residues, ends and D or L forms follow the SMILES beside them. *: point of attachment. Boc = CC(C)(C)OC(=O)*; OBn = c1ccc(CO*)cc1; Bn = c1ccc(C*)cc1

What was measured:
Assay in all cases: NCI tumour cell line growth inhibition, 48 h
NCI-H460 = system: NCI-H460
Malme-3M = system: Malme-3M
SK-MEL-2 = system: SK-MEL-2
UO-31 = system: UO-31
DU-145 = system: DU-145
UACC-257 = system: UACC-257
SW-620 = system: SW-620
MDA-MB-435 = system: MDA-MB-435
U-251 = system: U-251
HT-29 = system: HT-29
SNB-19 = system: SNB-19
SK-OV-3 = system: SK-OV-3
SN12C = system: SN12C
RPMI-8226 = system: RPMI-8226
SF-268 = system: SF-268
HCC 2998 = system: HCC 2998
MDA-N = system: MDA-N
HL-60 = system: HL-60
RXF 393 = system: RXF 393

| Compound | GI50 (NCI-H460) | GI50 (Malme-3M) | GI50 (SK-MEL-2) | GI50 (UO-31) | GI50 (DU-145) | GI50 (UACC-257) | GI50 (SW-620) | GI50 (MDA-MB-435) | GI50 (U-251) | GI50 (HT-29) | GI50 (SNB-19) | GI50 (SK-OV-3) | GI50 (SN12C) | GI50 (RPMI-8226) | GI50 (SF-268) | GI50 (HCC 2998) | GI50 (MDA-N) | GI50 (HL-60) | GI50 (RXF 393) |
| --- | --- | --- | --- | --- | --- | --- | --- | --- | --- | --- | --- | --- | --- | --- | --- | --- | --- | --- | --- |
| O=[N+]([O-])C(/C(Cl)=C(/Cl)N1CCOCC1)=C1\Nc2ccccc2O1 | 12.7 µM (inactive) | > 100 µM (inactive) | > 100 µM (inactive) | > 100 µM (inactive) | 70.3 µM (inactive) | 15 µM (inactive) | > 100 µM (inactive) | > 100 µM (inactive) | 86.9 µM (inactive) | > 100 µM (inactive) | > 100 µM (inactive) | > 100 µM (inactive) | > 100 µM (inactive) | > 100 µM (inactive) | 28.9 µM (inactive) | 16.1 µM (inactive) | – | – | – |
| COc1ccc(CSc2ccccc2Cn2cccc2)cc1OC | > 100 µM (inactive) | 28.3 µM (inactive) | – | 39.4 µM (inactive) | > 100 µM (inactive) | 27.8 µM (inactive) | > 100 µM (inactive) | > 100 µM (inactive) | > 100 µM (inactive) | 99.8 µM (inactive) | > 100 µM (inactive) | > 100 µM (inactive) | 34.8 µM (inactive) | 11.6 µM (inactive) | > 100 µM (inactive) | 56.6 µM (inactive) | > 100 µM (inactive) | 20.7 µM (inactive) | – |
| CCC(C=O)P1(=O)OC(C)(C)CN1C(C)(C)C (configuration not stated) | > 100 µM (inactive) | 68.1 µM (inactive) | 34.9 µM (inactive) | > 100 µM (inactive) | > 100 µM (inactive) | > 100 µM (inactive) | > 100 µM (inactive) | 99.5 µM (inactive) | > 100 µM (inactive) | > 100 µM (inactive) | > 100 µM (inactive) | 68.1 µM (inactive) | – | 65.3 µM (inactive) | 88.3 µM (inactive) | 76.7 µM (inactive) | – | – | – |
| Oc1cccc(/C=N/N=c2/[nH][nH]/c(=N/N=C/c3cccc(O)c3)c3ccccc23)c1 | 21.4 µM (inactive) | 15.5 µM (inactive) | 22.6 µM (inactive) | 15 µM (inactive) | 23.9 µM (inactive) | 29.9 µM (inactive) | 14.6 µM (inactive) | 22.9 µM (inactive) | 13.3 µM (inactive) | 24.1 µM (inactive) | 24.4 µM (inactive) | 29.3 µM (inactive) | 11.6 µM (inactive) | 11.5 µM (inactive) | 26.6 µM (inactive) | – | – | – | 49.2 µM (inactive) |
| COc1cc(/C=C2\N=C(C)N(n3c(-c4ccccc4)nc4ccccc4c3=O)C2=O)cc(OC)c1OC | > 100 µM (inactive) | > 100 µM (inactive) | – | > 100 µM (inactive) | > 100 µM (inactive) | > 100 µM (inactive) | > 100 µM (inactive) | > 100 µM (inactive) | – | > 100 µM (inactive) | > 100 µM (inactive) | > 100 µM (inactive) | > 100 µM (inactive) | 85.3 µM (inactive) | > 100 µM (inactive) | > 100 µM (inactive) | > 100 µM (inactive) | > 100 µM (inactive) | – |
| c1ccc(C2OCC(OC3CCCCO3)CO2)cc1 (configuration not stated) | > 100 µM (inactive) | > 100 µM (inactive) | > 100 µM (inactive) | 75.5 µM (inactive) | > 100 µM (inactive) | > 100 µM (inactive) | > 100 µM (inactive) | > 100 µM (inactive) | > 100 µM (inactive) | > 100 µM (inactive) | > 100 µM (inactive) | > 100 µM (inactive) | > 100 µM (inactive) | > 100 µM (inactive) | > 100 µM (inactive) | > 100 µM (inactive) | > 100 µM (inactive) | > 100 µM (inactive) | – |
| COC(=O)Cc1ccc2c(c1)Sc1ccc(CC(=O)OC)cc1N2C | 33.1 µM (inactive) | 23.8 µM (inactive) | 51.4 µM (inactive) | 16.8 µM (inactive) | > 71.6 µM (inactive) | 30.5 µM (inactive) | 39.1 µM (inactive) | 6.4 µM (inactive) | 19.4 µM (inactive) | 10.8 µM (inactive) | 44 µM (inactive) | 38.3 µM (inactive) | 33.7 µM (inactive) | 39.1 µM (inactive) | 38.3 µM (inactive) | 54 µM (inactive) | – | 20.7 µM (inactive) | 25.1 µM (inactive) |
| O=C(Nc1nc2ncn(CC(COc3ccccc3)OC(=O)c3ccccc3)c2c(=O)[nH]1)c1ccccc1 (configuration not stated) | – | > 100 µM (inactive) | > 100 µM (inactive) | > 100 µM (inactive) | – | > 100 µM (inactive) | > 100 µM (inactive) | – | > 100 µM (inactive) | > 100 µM (inactive) | > 100 µM (inactive) | > 100 µM (inactive) | > 100 µM (inactive) | > 100 µM (inactive) | – | – | – | < 0.01 µM (active) | > 100 µM (inactive) |
| O=c1oc2c(Cl)cc(Cl)cc2cc1C1=CSC2=NCCN12 | 57.5 µM (inactive) | – | > 100 µM (inactive) | 29.3 µM (inactive) | 40.1 µM (inactive) | > 100 µM (inactive) | 50.5 µM (inactive) | 32 µM (inactive) | 44.7 µM (inactive) | 61.2 µM (inactive) | 44.8 µM (inactive) | > 100 µM (inactive) | 51.8 µM (inactive) | 58.9 µM (inactive) | – | – | 36.2 µM (inactive) | 30.3 µM (inactive) | 34.2 µM (inactive) |
| O=C1Nc2cc([N+](=O)[O-])ccc2C(=O)N2CCC[C@@H]12 | > 100 µM (inactive) | – | > 100 µM (inactive) | > 100 µM (inactive) | > 100 µM (inactive) | > 100 µM (inactive) | > 100 µM (inactive) | > 100 µM (inactive) | > 100 µM (inactive) | > 100 µM (inactive) | > 100 µM (inactive) | > 100 µM (inactive) | > 100 µM (inactive) | > 100 µM (inactive) | > 100 µM (inactive) | > 100 µM (inactive) | – | > 100 µM (inactive) | > 100 µM (inactive) |
| O=C(O)CCCNc1ncc2c(n1)-c1ccccc1OC2 | > 100 µM (inactive) | > 100 µM (inactive) | > 100 µM (inactive) | 68.2 µM (inactive) | > 100 µM (inactive) | > 100 µM (inactive) | > 100 µM (inactive) | > 100 µM (inactive) | > 100 µM (inactive) | > 100 µM (inactive) | > 100 µM (inactive) | > 100 µM (inactive) | > 100 µM (inactive) | > 100 µM (inactive) | > 100 µM (inactive) | – | > 100 µM (inactive) | 30.1 µM (inactive) | > 100 µM (inactive) |
| N#CC(c1nc2ccccc2s1)c1ncnc(Cl)c1[N+](=O)[O-] (configuration not stated) | 20.3 µM (inactive) | 19.4 µM (inactive) | – | 27.9 µM (inactive) | 34.1 µM (inactive) | 20.6 µM (inactive) | 19.3 µM (inactive) | 29.2 µM (inactive) | 32.7 µM (inactive) | 17.4 µM (inactive) | 32.1 µM (inactive) | 37.8 µM (inactive) | 18.2 µM (inactive) | 28.1 µM (inactive) | 17.5 µM (inactive) | – | 18.2 µM (inactive) | – | 25.5 µM (inactive) |
| COc1ccc(CNc2nc(NCc3ccc(OC)cc3)nc(Nc3ccccc3)n2)cc1 | 7.16 µM (inactive) | 6.35 µM (inactive) | > 100 µM (inactive) | > 100 µM (inactive) | 37.7 µM (inactive) | 35.1 µM (inactive) | 6.46 µM (inactive) | 2.22 µM (inactive) | 16.7 µM (inactive) | 1.93 µM (inactive) | 17.8 µM (inactive) | 61.5 µM (inactive) | 46 µM (inactive) | 8.34 µM (inactive) | > 100 µM (inactive) | – | – | 2.44 µM (inactive) | > 100 µM (inactive) |
| COc1cc(-c2c3c(cc4c2OCO4)[C@@H](Nc2ccc4c(c2)Cc2cc(N[C@@H]5c6cc7c(cc6C(c6cc(OC)c(O)c(OC)c6)[C@H]6C(=O)OC[C@H]56)OCO7)ccc2-4)[C@H]2COC(=O)[C@@H]2C3)cc(OC)c1O (some centres not stated) | 17.3 µM (inactive) | 14.8 µM (inactive) | – | 21.9 µM (inactive) | 26.3 µM (inactive) | 48.8 µM (inactive) | 49.8 µM (inactive) | 13.7 µM (inactive) | 26.7 µM (inactive) | 20 µM (inactive) | 36 µM (inactive) | 14.8 µM (inactive) | > 100 µM (inactive) | > 100 µM (inactive) | 51.2 µM (inactive) | – | 13.3 µM (inactive) | > 100 µM (inactive) | – |
| CC#Cc1ccc(-c2ccccc2)s1 | > 100 µM (inactive) | – | > 100 µM (inactive) | > 100 µM (inactive) | > 100 µM (inactive) | > 100 µM (inactive) | > 100 µM (inactive) | > 100 µM (inactive) | > 100 µM (inactive) | > 100 µM (inactive) | > 100 µM (inactive) | – | > 100 µM (inactive) | – | > 100 µM (inactive) | – | > 100 µM (inactive) | > 100 µM (inactive) | > 100 µM (inactive) |
| CC(C)CC(NC(=O)C(Cc1ccccc1)NC(=O)C(COCc1ccccc1)NC(=O)OC(C)(C)C)C(=O)OCc1ccccc1 (stereo not drawn) (Boc-Ser(Bn)-Phe-Leu-OBn; configuration not given here) | 11.9 µM (inactive) | 78.2 µM (inactive) | 56.6 µM (inactive) | 39.5 µM (inactive) | 9.57 µM (inactive) | 86.7 µM (inactive) | 22.1 µM (inactive) | > 10 µM (inactive) | 22.3 µM (inactive) | 15.9 µM (inactive) | > 100 µM (inactive) | 36.4 µM (inactive) | 25.8 µM (inactive) | 6.95 µM (inactive) | 21.7 µM (inactive) | 14.7 µM (inactive) | 69 µM (inactive) | 4.01 µM (inactive) | – |
